Test results from ChEMBL document CHEMBL6114969, “Ultra-short lipopeptides containing d-amino acid exhibiting excellent stability and antibacterial activity against gram-positive bacteria” (Eur J Med Chem, 2025).
Converted amounts (≈) assume the structure as drawn. The source made the active and inactive calls. The calls are words filed in the database; no cut-off is given here.

Experiments:
[1] = system: Staphylococcus aureus; test: Antibacterial activity against methicillin-resistant Staphylococcus aureus ATCC 33591 incubated for 18 to 24 hrs in presence of 2 mg/ml of trypsin by broth microdilution method; format: functional; conditions: time 18-24 hrs
[2] = Hemolytic activity in mouse Red blood cells incubated for 1 hr by absorbance based analysis; format: toxicity, cell-based; conditions: erythrocyte
[3] = system: Staphylococcus aureus; test: Antibacterial activity against methicillin-resistant Staphylococcus aureus ATCC 33591 assessed as fold change in MIC incubated for 18 to 24 hrs in presence of NaCl by broth microdilution method; format: functional; conditions: time 18-24 hrs
[4] = system: Staphylococcus aureus; test: Antibacterial activity against methicillin-resistant Staphylococcus aureus ATCC 33591 incubated for 18 to 24 hrs in presence of 1 mg/ml of trypsin by broth microdilution method; format: functional; conditions: time 18-24 hrs
[5] = system: Staphylococcus aureus; test: Antibacterial activity against methicillin-resistant Staphylococcus aureus ATCC 33591 incubated for 18 to 24 hrs in presence of 0.5 mg/ml of trypsin by broth microdilution method; format: functional; conditions: time 18-24 hrs
[6] = system: Staphylococcus aureus; test: Antibacterial activity against methicillin-resistant Staphylococcus aureus ATCC 33591 incubated for 18 to 24 hrs in presence of 0.5 mg/ml of pepsin by broth microdilution method; format: functional; conditions: time 18-24 hrs
[7] = Retention time of compound by RP-HPLC analysis; format: physicochemical
[8] = system: Staphylococcus aureus; test: Antibacterial activity against methicillin-resistant Staphylococcus aureus ATCC 33591 incubated for 18 to 24 hrs in presence of 1 mg/ml of pepsin by broth microdilution method; format: functional; conditions: time 18-24 hrs
[9] = system: Staphylococcus aureus; test: Antibacterial activity against methicillin-resistant Staphylococcus aureus ATCC 33591 assessed as fold change in MIC incubated for 18 to 24 hrs in presence of 10 percent FBS by broth microdilution method; format: functional; conditions: time 18-24 hrs
[10] = system: Staphylococcus aureus; test: Antibacterial activity against methicillin-resistant Staphylococcus aureus ATCC 33591 incubated for 18 to 24 hrs in presence of 1 mg/ml of chymotrypsin by broth microdilution method; format: functional; conditions: time 18-24 hrs
[11] = system: Staphylococcus aureus; test: Antibacterial activity against methicillin-resistant Staphylococcus aureus ATCC 33591 incubated for 18 to 24 hrs in presence of 2 mg/ml of pepsin by broth microdilution method; format: functional; conditions: time 18-24 hrs
[12] = system: Staphylococcus aureus; test: Antibacterial activity against Staphylococcus aureus ATCC 29213 incubated for 18 to 24 hrs by broth microdilution method; format: functional; conditions: time 18-24 hrs
[13] = system: Staphylococcus aureus; test: Antibacterial activity against methicillin-resistant Staphylococcus aureus ATCC 33591 incubated for 18 to 24 hrs by broth microdilution method; format: functional; conditions: time 18-24 hrs
[14] = system: Staphylococcus aureus; test: Antibacterial activity against methicillin-resistant Staphylococcus aureus ATCC 33591 assessed as fold change in MIC incubated for 18 to 24 hrs in presence of 10 percent mouse serum by broth microdilution method; format: functional; conditions: time 18-24 hrs
[15] = system: Staphylococcus aureus; test: Antibacterial activity against methicillin-resistant Staphylococcus aureus ATCC 33591 incubated for 18 to 24 hrs in presence of 2 mg/ml of chymotrypsin by broth microdilution method; format: functional; conditions: time 18-24 hrs
[16] = system: Staphylococcus aureus; test: Antibacterial activity against methicillin-resistant Staphylococcus aureus ATCC 33591 incubated for 18 to 24 hrs in presence of 0.5 mg/ml of chymotrypsin by broth microdilution method; format: functional; conditions: time 18-24 hrs
[17] = system: Staphylococcus epidermidis; test: Antibacterial activity against Staphylococcus epidermidis ATCC 12228 incubated for 18 to 24 hrs by broth microdilution method; format: functional; conditions: time 18-24 hrs
[18] = system: Enterococcus faecalis; test: Antibacterial activity against Enterococcus faecalis ATCC 29212 incubated for 18 to 24 hrs by broth microdilution method; format: functional; conditions: time 18-24 hrs
[19] = system: Staphylococcus aureus; test: Antibacterial activity against Staphylococcus aureus ATCC 25923 incubated for 18 to 24 hrs by broth microdilution method; format: functional; conditions: time 18-24 hrs
[20] = system: Staphylococcus aureus; test: Antibacterial activity against methicillin-resistant Staphylococcus aureus ATCC 33591 assessed as fold change in MIC incubated for 18 to 24 hrs in presence of MgCl2 by broth microdilution method; format: functional; conditions: time 18-24 hrs
[21] = system: Staphylococcus aureus; test: Induction of drug resistance in Staphylococcus aureus ATCC 25923 at sub-MIC measured after 2 passages; format: functional, organism-based
[22] = system: Staphylococcus aureus; test: Antibacterial activity against ciprofloxacin-resistant methicillin-resistant Staphylococcus aureus ATCC 33591 incubated for 18 to 24 hrs; format: functional; conditions: time 18-24 hrs
[23] = system: Staphylococcus aureus; test: Antibacterial activity against drug-resistant Staphylococcus aureus ATCC 25923 incubated for 18 to 24 hrs; format: functional; conditions: time 18-24 hrs
[24] = system: Staphylococcus aureus; test: Antibacterial activity against ciprofloxacin-resistant Staphylococcus aureus ATCC 25923 incubated for 18 to 24 hrs; format: functional; conditions: time 18-24 hrs
[25] = system: Staphylococcus aureus; test: Antibacterial activity against gentamicin-resistant methicillin-resistant Staphylococcus aureus ATCC 33591 incubated for 18 to 24 hrs; format: functional; conditions: time 18-24 hrs
[26] = system: Staphylococcus aureus; test: Antibacterial activity against drug-resistant methicillin-resistant Staphylococcus aureus ATCC 33591 incubated for 18 to 24 hrs; format: functional; conditions: time 18-24 hrs
[27] = system: Staphylococcus aureus; test: Antibacterial activity against gentamicin-resistant Staphylococcus aureus ATCC 25923 incubated for 18 to 24 hrs; format: functional; conditions: time 18-24 hrs
[28] = system: Staphylococcus aureus; test: Antibacterial activity against polymyxin B-resistant methicillin-resistant Staphylococcus aureus ATCC 33591 incubated for 18 to 24 hrs; format: functional; conditions: time 18-24 hrs
[29] = system: Staphylococcus aureus; test: Antibacterial activity against polymyxin B-resistant Staphylococcus aureus ATCC 25923 incubated for 18 to 24 hrs; format: functional; conditions: time 18-24 hrs
[30] = Stability in mouse serum assessed as half life measured upto 96 hrs by RP-HPLC analysis; format: ADME, cell-free
[31] = Stability in mouse serum assessed as compound degradation measured upto 96 hrs by RP-HPLC analysis; format: ADME, cell-free; conditions: read-out: Drug degradation

| SMILES | MIC [1] [µM] | HC10 [2] [µM] | fold change (FC) [3] | MIC [4] [µM] | MIC [5] [µM] | MIC [6] [µM] | Retention_time [7] [min] | MIC [8] [µM] | fold change (FC) [9] | MIC [10] [µM] | MIC [11] [µM] | MIC [12] [µM] | MIC [13] [µM] | fold change (FC) [14] | MIC [15] [µM] | MIC [16] [µM] | MIC [17] [µM] | MIC [18] [µM] | MIC [19] [µM] | fold change (FC) [20] | further results |
| --- | --- | --- | --- | --- | --- | --- | --- | --- | --- | --- | --- | --- | --- | --- | --- | --- | --- | --- | --- | --- | --- |
| CCCCCCCCCCCC(=O)N[C@@H](CCCNC(=N)N)C(=O)N[C@H](CCCNC(=N)N)C(=O)N[C@H](Cc1c[nH]c2ccccc12)C(=O)O | > 128 | 64 | <3 | > 128 | 128 | 4 | 19.303 | 8 | 8 | 8 | 16 | 4 (≈ 2.8 µg/mL) | 4 (≈ 2.8 µg/mL) | 4 | 32 | 8 | 2 (≈ 1.4 µg/mL) | 16 (≈ 11.2 µg/mL) | 4 (≈ 2.8 µg/mL) | <3 |  |
| O=C(O)c1cn(C2CC2)c2cc(N3CCNCC3)c(F)cc2c1=O [CIPROFLOXACIN] |  |  |  |  |  |  |  |  |  |  |  | 1 (≈ 0.331 µg/mL) | 256 (≈ 84.8 µg/mL) |  |  |  | ≤ 0.5 | 2 (≈ 0.663 µg/mL) | 1 (≈ 0.331 µg/mL) |  | Activity [21]: Active; MIC [22]: 8190 µM (≈ 2710 µg/mL); MIC [23]: > 128 µM; MIC [24]: 8190 µM (≈ 2710 µg/mL); MIC [25]: 128 µM (≈ 42.4 µg/mL); MIC [26]: > 128 µM; MIC [27]: 128 µM (≈ 42.4 µg/mL); MIC [28]: > 128 µM; MIC [29]: > 128 µM |
| CN[C@H](CC(C)C)C(=O)N[C@H]1C(=O)N[C@@H](CC(N)=O)C(=O)N[C@H]2C(=O)N[C@H]3C(=O)N[C@H](C(=O)N[C@H](C(=O)O)c4cc(O)cc(O)c4-c4cc3ccc4O)[C@H](O)c3ccc(c(Cl)c3)Oc3cc2cc(c3O[C@@H]2O[C@H](CO)[C@@H](O)[C@H](O)[C@H]2O[C@H]2C[C@](C)(N)[C@H](O)[C@H](C)O2)Oc2ccc(cc2Cl)[C@H]1O [VANCOMYCIN] |  |  |  |  |  |  |  |  |  |  |  | ≤ 0.5 | ≤ 0.5 |  |  |  | 1 (≈ 1.45 µg/mL) | 2 (≈ 2.9 µg/mL) | ≤ 0.5 |  |  |
| CCCCCCCCCCCC(=O)N[C@@H](CCCNC(=N)N)C(=O)N[C@H](CCCNC(=N)N)C(=O)N[C@@H](Cc1c[nH]c2ccccc12)C(=O)O | 32 | 128 | <3 | 32 | 16 | 64 | 18.997 | 64 | 8 | 32 | 64 | 4 (≈ 2.8 µg/mL) | 4 (≈ 2.8 µg/mL) | 4 | 32 | 16 | 2 (≈ 1.4 µg/mL) | 8 (≈ 5.59 µg/mL) | 4 (≈ 2.8 µg/mL) | <3 |  |
| CCCCCCCCCCCC(=O)N[C@@H](CCCNC(=N)N)C(=O)N[C@@H](CCCNC(=N)N)C(=O)N[C@@H](Cc1c[nH]c2ccccc12)C(=O)O | > 128 | 128 | <3 | > 128 | > 128 | 16 | 18.643 | 32 | 8 | > 128 | 64 | 4 (≈ 2.8 µg/mL) | 4 (≈ 2.8 µg/mL) | 4 | > 128 | > 128 | 2 (≈ 1.4 µg/mL) | 8 (≈ 5.59 µg/mL) | 4 (≈ 2.8 µg/mL) | <3 | half-life [30]: 17.4 h; metabolised at 96 h [31]: ~100% |
